# Experimental data taken from patent US20260262643A1, “HERBICIDAL BENZOXAZINES” (FMC CORPORATION, priority 2022, published 2026).
# Columns and labels:
# foxtail, giant = assay: Test A postemergence; assay type: in vivo, Setaria faberi; conditions: Setaria faberi, post-emergence, 240 h, read-out: Plant response rating, Foxtail, Giant
# How it was run: (§1)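 Plants were grown in loam and sand and treated preemergence or postemergence (one- to two-leaf stage, 2–10 cm) with compound in solvent plus surfactant. Response was scored against untreated controls after 10 greenhouse days, where 0 means no effect and 100 complete control.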
# wheat [1] = assay: Test A preemergence; assay type: in vivo, Triticum aestivum; conditions: Triticum aestivum, pre-emergence, 240 h, read-out: Plant response rating, Wheat
# How it was run: as §1
# sedge, umbrella = assay: Test B flooded paddy test; assay type: in vivo, Cyperus difformis; conditions: Cyperus difformis, 312 h; 250 g ai/ha, Flood, 13 days, 0 to 100 scale (0 no effect, 100 complete control); read-out: Plant response rating, Sedge, Umbrella
# How it was run: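 2-leaf stage; pots flooded 3 cm over soil; compound dosed into paddy water; depth kept constant. Greenhouse, 13 d. Visual rating vs controls, 0 (no effect)–100 (complete control). Dash = no result.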
# soybean [2] = assay: Test A postemergence; assay type: in vivo, Glycine max; conditions: Glycine max, post-emergence, 240 h, read-out: Plant response rating, Soybean
# How it was run: as §1
# ragweed [3] = assay: Test A preemergence; assay type: in vivo, Ambrosia artemisiifolia; conditions: Ambrosia artemisiifolia, pre-emergence, 240 h, read-out: Plant response rating, Ragweed
# How it was run: as §1
# ragweed [4] = assay: Test A postemergence; assay type: in vivo, Ambrosia artemisiifolia; conditions: Ambrosia artemisiifolia, post-emergence, 240 h, read-out: Plant response rating, Ragweed
# How it was run: as §1
# ryegrass, Italian = assay: Test A postemergence; assay type: in vivo, Lolium multiflorum; conditions: Lolium multiflorum, post-emergence, 240 h, read-out: Plant response rating, Ryegrass, Italian
# How it was run: as §1
# galium = assay: Test A postemergence; assay type: in vivo, Galium aparine; conditions: Galium, post-emergence, 240 h, read-out: Plant response rating, Galium
# How it was run: as §1
# goosegrass = assay: Test A postemergence; assay type: in vivo, Eleusine indica; conditions: Eleusine indica, post-emergence, 240 h, read-out: Plant response rating, Goosegrass
# How it was run: as §1
# corn = assay: Test A preemergence; assay type: in vivo, Zea mays; conditions: Zea mays, pre-emergence, 240 h
# How it was run: as §1
# pigweed, palmer = assay: Test A preemergence; assay type: in vivo, Amaranthus palmeri; conditions: Amaranthus palmeri, pre-emergence, 240 h, read-out: Plant response rating, Pigweed, Palmer
# How it was run: as §1
# wheat [5] = assay: Test A postemergence; assay type: in vivo, Triticum aestivum; conditions: Triticum aestivum, post-emergence, 240 h, read-out: Plant response rating, Wheat
# How it was run: as §1
# oat, wild = assay: Test A postemergence; assay type: in vivo, Avena fatua; conditions: Avena fatua, post-emergence, 240 h, read-out: Plant response rating, Oat, Wild
# How it was run: as §1
# soybean [6] = assay: Test A preemergence; assay type: in vivo, Glycine max; conditions: Glycine max, pre-emergence, 240 h, read-out: Plant response rating, Soybean
# How it was run: as §1
# [7] = 125 g ai/ha, postemergence, 10 days, visual injury, 0 to 100 scale (0 no effect, 100 complete control)
# [8] = 500 g ai/ha, Postemergence, 0 to 100 scale
# [9] = 125 g ai/ha, visual injury after 10 days, 0 to 100 scale, 0 is no effect, 100 is complete control
# [10] = 500 g ai/ha, 0 to 100 scale (0 no effect, 100 complete control), 10 days
compound,measurement,setting,value
"COc1ccc(-n2cncn2)cc1C(=O)N1C[C@H](C)Oc2c(C)cccc21 [Compound 63, [(2S)-2,3-Dihydro-2,8-dimethyl-4H-1,4-benzoxazin-4-yl][2-methoxy-5-(1H-1,2,4-triazol-1-yl)phenyl]methanone]",pest or weed control at 125 g/ha,"foxtail, giant; [7]",90%
same,pest or weed control at 500 g/ha,"foxtail, giant; [8]",90%
same,plant injury at 125 g/ha,wheat [1]; [9],40%
same,plant injury at 500 g/ha,wheat [1]; [10],90%
same,pest or weed control at 250 g/ha,"sedge, umbrella",98%
same,plant injury at 125 g/ha,soybean [2]; [7],100%
same,plant injury at 500 g/ha,soybean [2]; [8],100%
same,pest or weed control at 125 g/ha,ragweed [3]; [9],0%
same,pest or weed control at 500 g/ha,ragweed [3]; [10],40%
same,pest or weed control at 125 g/ha,ragweed [4]; [7],40%
same,pest or weed control at 500 g/ha,ragweed [4]; [8],40%
same,pest or weed control at 125 g/ha,"ryegrass, Italian; [7]",80%
same,pest or weed control at 500 g/ha,"ryegrass, Italian; [8]",100%
same,pest or weed control at 125 g/ha,galium; [7],100%
same,pest or weed control at 500 g/ha,galium; [8],100%
same,pest or weed control at 125 g/ha,goosegrass; [7],70%
same,pest or weed control at 500 g/ha,goosegrass; [8],80%
same,"Corn plant response rating (crop injury, 0 = no effect, 100 = complete kill) at 125 g/ha",corn; [9],60%
same,"Corn plant response rating (crop injury, 0 = no effect, 100 = complete kill) at 500 g/ha",corn; [10],80%
same,pest or weed control at 125 g/ha,"pigweed, palmer; [9]",40%
same,pest or weed control at 500 g/ha,"pigweed, palmer; [10]",90%
same,plant injury at 125 g/ha,wheat [5]; [7],70%
same,plant injury at 500 g/ha,wheat [5]; [8],90%
same,pest or weed control at 125 g/ha,"oat, wild; [7]",70%
same,pest or weed control at 500 g/ha,"oat, wild; [8]",80%
same,plant injury at 125 g/ha,soybean [6]; [9],100%
same,plant injury at 500 g/ha,soybean [6]; [10],100%
